Experiments:
HT-22 cells = format: cell-based, mouse
[1] = tested on: SNAP-25, Syntaxin-1A, AT1A3; assay: Immunocytochemistry of porosome proteins in Alzheimer's neurons; format: cell-based, mouse; details: Alzheimer's neurons WT-APP (Aβ)
[2] = stated in discussion, no reference given; cited from earlier work

Structure (SMILES): O=c1cc(-c2ccc(O)cc2)oc2cc(O)cc(O)c12 [Apigenin]
- mitoSOX, peptide plus Apigenin (HT-22 cells; AD neurons, peptide and Apigenin combined): near normal levels
- mitoSOX, effect of Apigenin (HT-22 cells; HT-22, Apigenin 5 or 10 μM with DA1 1 μM, Aβ1–42 10 μM 12 h): not much change
- immunoreactivity of SNAP-25, Syntaxin-1A and AT1A3, single agent [1]: Modest increase
- passage through the blood-brain barrier [2]: can pass through the blood-brain barrier

From article doi:10.1101/2024.11.09.622805v1 (bioRxiv, 2024)
